Reference: patent publication US20240000753A1, “METHODS AND COMPOSITIONS TO INCREASE LIFESPAN AND HEALTHSPAN BY MIMICKING THE EFFECTS OF TIME-RESTRICTED FEEDING” (The Trustees of Columbia University in the City of New York, priority 2020, published 2024)

Test system: Drosophila
Assay: Lifespan analysis of flies fed RU486
Type: in vivo
Details: flies lacking UAS-RNAi transgenes; RU486 fed from day 5 post-eclosion until death (FIG. 5K)
Experimental: All drugs were supplemented into cooled (65° C.) liquid adult medium (containing 3% yeast extract) following preparation to the following final concentration(s): RU486 (Cayman Chemical) was dissolved in ethanol was supplemented into medium after day 5 of eclosion at a final concentration of 100 μg/mL (with the exception of daGS>UAS-atg1 and controls, 0.5 μg/mL) vehicle controls were supplemented with same volume of ethanol alone. Timed RU486 feeding of daGS>UAS-atg1 consisted of flies being fed 0.5 μg/mL in standard adult media or fasting media only during the fasting phase, then flipped to vehicle control food the following morning only from days 10-40 of adulthood. Vehicle only controls were flipped at the same time for consistency. For gut microbe clearance, the medium contained 500 μg/mL ampicillin, 50 μg/mL tetracycline, and 200 μg/mL rifamycin in 50% ethanol. Same volume of 50% ethanol alone was used as the vehicle control. Drosophila were reared from embryos in low-density bottles with standard yeast cornmeal-agar media listed above (Archon Scientific) Newly eclosed flies (˜24 hours) were collected onto adult medium w/3% yeast extract and allowed to mate for 48 hours. […] Death was scored at time of flipping, and lifespan compared by log-rank analysis.

## CC#C[C@]1(O)CC[C@H]2[C@@H]3CCC4=CC(=O)CCC4=C3[C@@H](c3ccc(N(C)C)cc3)C[C@@]21C [RU486]
  effect on iTRF-mediated lifespan extension: no effect
